According to patent US20220105189A1, “POLYETHYLENE GLYCOL CONJUGATED DRUG AND ITS PREPARATION METHOD AND USE” (CHONGQING UPGRA BIOTECHNOLOGY CO., LTD., priority 2019, published 2022):

System: human colon cancer cell colo205
Assay: Anti-tumor efficacy on subcutaneously transplanted tumor of colo205 (Experimental Example 2)
Assay type: in vivo, Balb/c nude mice
Settings: colo205, Day 19; 23-161 16.06 mg/kg tail vein; PCB 1.73 mg/kg oral
Protocol: 1. Tumor strain and transplantation method of solid tumor: Human colon cancer cell colo205 was routinely preserved in the cell room of the State Key Laboratory of Molecular Oncology, Institute of Cancer Research, Chinese Academy of Medical Sciences. The tumor cells were taken out of liquid nitrogen, quickly thawed at 37° C., resuscitated and expanded, and then inoculated subcutaneously in the right axillary of healthy Balb/c mice. When the transplanted tumor grew to about 1.0 cm in diameter, the mice were sacrificed. Under aseptic conditions, the tumors were peeled off for passage by conventional methods.
2. Tumor inoculation and grouping: the tumor-bearing mice were sacrificed, the tumors were peeled off under aseptic condition and washed with normal saline several times, the necrotic tissues were removed, the well-growing tumor tissues were selected and divided into 2×2 mm tissue blocks, and the tumor tissue blocks were inoculated subcutaneously in the right axillary with a special metal trocar. After the transplantation of the tumor tissue blocks, administration in groups was carried out on the day of the transplantation.
3. […]
4. Data collection: the mice were weighed, the volume of tumors was measured, the mice were scarified on Day 19, the tumors were weighed, and the tumor inhibition rate (%) was calculated. […]

CC(=O)c1c(C)c2cnc(Nc3ccc(N4CCNCC4)cn3)nc2n(C2CCCC2)c1=O [PCB, Palbociclib]
Tumor inhibition rate: −5.8% | Tumor weight (g) Average: 0.39 g
